Measurements: patent publication US12673945B2, “3-((8-((1H-pyrazol-4-yl)amino)imidazo[1,2-a]pyridin-3-yl)ethinyl)-n-phenylbenzamide derivative, method for preparing same, and pharmaceutical composition containing same as active ingredient for prevention or treatment of cancer” (DAEGU-GYEONGBUK MEDICAL INNOVATION FOUNDATION, priority 2020, dated 2026)

What was measured:
[1] = tested on: Luc_Ba/F3 T315I-Bcr-Abl cell line; assay: in vivo pharmacological activity, blood cancer mouse model; design: species or system nude mice; conditions: for day after the administration on which all subjects died (FIG. 3): vehicle group: day 21
Procedure: After the mice were adapted to an animal facility for 1 week, the Luc_Ba/F3 T315I-Bcr-Abl cell line emitting luciferase was transplanted into the caudal vein at the density of 5×10^6/animal. Group separation was performed 3 days after the cell line transplantation. On the day of the group separation, 10 mice were randomly assigned to each group of 5 groups so that the luminescence values were equal after luminescence measurement using IVIS spectrum-CT optical imaging equipment.
In addition, the body weight and survival rate of each experimental group were monitored.
Statistical analysis was performed using GraphPad Prism 8, and the statistical significance of the survival rate was confirmed using unpaired t test and log-rank (Mantel-Cox) test.

T315I-KOPM28 cells = assay: human CML cell proliferation inhibition; format: cell-based; conditions: 72 hours, Cell Counting Kit-8
Summary of the method: (§1)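 Cell Counting Kit-8 read-out (450 nm, 2 h) after 72 h compound exposure at 37 °C gave GI50 relative to DMSO vehicle. Human CML lines: wild-type Bcr-Abl TCCS and KOPM28, plus T315I-TCCS and T315I-KOPM28; nine 5-fold dilutions, final 0-10 μM.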

KOPM28 cells = assay: human CML cell proliferation inhibition; format: cell-based; conditions: 72 hours, Cell Counting Kit-8
Summary of the method: as §1

TCCS cells = assay: human CML cell proliferation inhibition; format: cell-based; conditions: 72 hours, Cell Counting Kit-8
Summary of the method: as §1

T315I-TCCS cells = assay: human CML cell proliferation inhibition; format: cell-based; conditions: 72 hours, Cell Counting Kit-8
Summary of the method: as §1

[2] = oral pharmacokinetic test; format: in vivo, SD rats; conditions: SD, plasma; rat, 10 mg/Kg PO, vehicle A (NMP:PEG400=5:95)
Procedure: To evaluate the pharmacokinetic properties in vivo, oral pharmacokinetic test was performed with the compounds of Comparative Examples 1 and 4 and Examples 1 and 4 using mice and rats, and the PK parameters are shown in Table 10.
ICR mice (6-7 weeks old) and SD rats (6-7 weeks old) were used for the test. The fasted group was fasted about 16 hours before oral administration, and the fed group was fasted about 4 hours before oral administration. The test drug for oral administration was used by dissolving the drug in a vehicle at a concentration of 1 mg/mL for use, and blood samples were collected (time point: 0.25, 0.5, 1, 2, 4, 8, 12, 24, 32, n=3) from the heart (mouse, 500 μL/time point) or jugular vein (rat, 120 μL/time point). Blood was centrifuged at 12,000 G at 4° C. for 2 minutes to separate plasma, and stored at −80° C. until analysis. • Vehicle A (NMP:PEG400=5:95) • Vehicle B (0.5% methyl cellulose) 6-2. Sampling and Pretreatment
To 20 μl of plasma, 180 μl of acetonitrile (including internal standard) was added. The mixture was vortexed and centrifuged for 5 minutes at 15,000 rpm at 4° C. The supernatant obtained after centrifugation was analyzed by LC-MS/MS.
PK parameters were calculated with a non-compartmental analysis model using Phoenix WinNonlin 6.4 version (Pharsight, USA) program.

Compound | day after the administration on which all subjects died (FIG. 3) ([1]; 25 mg/kg oral once a day for 10 days) [days] | day after the administration on which all subjects died (FIG. 3) ([1]; 50 mg/kg oral once a day for 10 days) [days] | day after the administration on which all subjects died (FIG. 3) ([1]; 100 mg/kg oral once a day for 10 days) [days] | dose dependence of luminescence signal (FIG. 2) ([1]; 25, 50, 100 mg/kg oral once a day for 10 days) | luminescence values in optical images compared to the vehicle group (FIG. 1) ([1]; all treated groups, oral once a day for 10 days, images days 0, 4, 11, 18) | luminescence signals emitted from blood cancer cells compared to the vehicle group (FIG. 2) ([1]; day 18 after administration, 25, 50, 100 mg/kg oral) | GI50 (T315I-KOPM28 cells) [µM] | GI50 (KOPM28 cells) [µM] | GI50 (TCCS cells) [µM] | GI50 (T315I-TCCS cells) [µM] | AUC(0-t) [2] [ng·h/mL] | Cmax [2] [ng/mL] | half-life [2] [h]
Cc1cn(-c2cc(NC(=O)c3cc(C#Cc4cnc5c(Nc6cnn(C)c6)cccn45)c(C)cc3F)cc(C(C)(C)C#N)c2)cn1 [Example 1, N-(3-(2-cyanopropane-2-yl)-5-(4-methyl-1H-imidazol-1-yl)phenyl)-2-fluoro-4-methyl-5-((8-((1-methyl-1H-pyrazol-4-yl)amino)imidazo[1,2-a]pyridin-3-yl)ethynyl)benzamide] | 31 | 32 | 35 | decreased dose-dependently | weak luminescence values | weak luminescence signals | 0.1 | < 0.01 | < 0.01 | < 0.01 | 15900 | 2000 | 3.3
Cc1cn(-c2cc(NC(=O)c3cc(C#Cc4cnc5c(Nc6cnn(C)c6)cccn45)c(C)cc3F)cc(C(F)(F)F)c2)cn1 [Example 4, 2-fluoro-4-methyl-N-(3-(4-methyl-1H-imidazol-1-yl)-5-(trifluoromethyl)phenyl)-5-((8-((1-methyl-1H-pyrazol-4-yl)amino)imidazo[1,2-a]pyridin-3-yl)ethynyl)benzamide] | – | – | – | – | – | – | 0.1 | 0.1 | < 0.01 | 0.1 | – | – | –
